Patent publication EP0400805A1, “Cephalosporin compounds and their use” (Ishimaru, Toshiyasu, priority 1989, dated 1990)

Tests used:
Assay in all cases: MIC by agar dilution method
Format in all cases: cell-based
Parameters in all cases: unit not given here
[1] = system: Serratia marcescens
Experimental: (§1) The following Table 1 show minimum inhibitory concentrations (MIC) against Gram-positive and Gram-negative bacteria of representative compounds of the invention. MIC was measured by agar dilution method.

[2] = system: Pseudomonas aerugenosa
Experimental: as §1

[3] = system: Proteus mirabilis
Experimental: as §1

[4] = system: Bacillus subtilis
Experimental: as §1

[5] = system: Staph. aureus Smith
Experimental: as §1

[6] = system: Escherichia coli NIHJ
Experimental: as §1

[7] = system: Staph. epidermidis
Experimental: as §1

[8] = system: Klebsiella pneumoniae
Experimental: as §1

[9] = system: Enterobacter cloacae
Experimental: as §1

[10] = system: Pseudomonas aerugenosa GN
Experimental: as §1

[11] = system: Salmonella typhi
Experimental: as §1

## Nc1nc(/C(=N/OCc2ccc(O)c(O)c2)C(=O)NC2C(=O)N3C(C(=O)[O-])=C(CSc4cnns4)CS[C@H]23)cs1.[Na+] (stereo partly shown) [Example 5, Sodium 7-[2-(2-aminothiazol-4-yl)-2(Z)-(3,4-dihydroxybenzyloxyimino)acetamido]-3-(1,2,3-thiadiazol-5-yl)thiomethyl-3-cephem-4-carboxylate]
[1]
  Minimum Inhibitor Concentration (MIC): 0.10
[2]
  Minimum Inhibitor Concentration (MIC): 0.39
[3]
  Minimum Inhibitor Concentration (MIC): 0.10
[4]
  Minimum Inhibitor Concentration (MIC): 0.39
[5]
  Minimum Inhibitor Concentration (MIC): 0.10
[6]
  Minimum Inhibitor Concentration (MIC): 0.05
[7]
  Minimum Inhibitor Concentration (MIC): 0.78
[8]
  Minimum Inhibitor Concentration (MIC): 0.05
[9]
  Minimum Inhibitor Concentration (MIC): 0.78
[10]
  Minimum Inhibitor Concentration (MIC): 0.78
[11]
  Minimum Inhibitor Concentration (MIC): 0.10

## Nc1nc(/C(=N/OCc2ccc(O)c(O)c2Cl)C(=O)NC2C(=O)N3C(C(=O)[O-])=C(CSc4cnns4)CS[C@H]23)cs1.[Na+] (stereo partly shown) [Example 2, Sodium 7-[2-(2-aminothiazol-4-yl)-2(Z)-(2-chloro-3,4-dihydroxybenzyloxyimino)acetamido]-3-(1,2,3-thiadiazol-5-yl)thiomethyl-3-cephem-4-carboxylate]
[1]
  Minimum Inhibitor Concentration (MIC): 0.78
[2]
  Minimum Inhibitor Concentration (MIC): 0.78
[3]
  Minimum Inhibitor Concentration (MIC): 0.05
[4]
  Minimum Inhibitor Concentration (MIC): 0.20
[5]
  Minimum Inhibitor Concentration (MIC): 0.20
[6]
  Minimum Inhibitor Concentration (MIC): 0.78
[7]
  Minimum Inhibitor Concentration (MIC): 0.20
[8]
  Minimum Inhibitor Concentration (MIC): 0.20
[9]
  Minimum Inhibitor Concentration (MIC): 0.78
[10]
  Minimum Inhibitor Concentration (MIC): 6.25
[11]
  Minimum Inhibitor Concentration (MIC): 0.20

## Nc1nc(/C(=N/OCc2cc(Cl)c(O)c(O)c2Cl)C(=O)NC2C(=O)N3C(C(=O)[O-])=C(CSc4cnns4)CS[C@H]23)cs1.[Na+] (stereo partly shown) [Example 1, Sodium 7-[2-(2-aminothiazol-4-yl)-2(Z)-(2,5-dichloro-3,4-dihydroxybenzyloxyimino)acetamido]-3-(1,2,3-thiadiazol-5-yl)thiomethyl-3-cephem-4-carboxylate]
[1]
  Minimum Inhibitor Concentration (MIC): 0.10
[2]
  Minimum Inhibitor Concentration (MIC): 0.39
[3]
  Minimum Inhibitor Concentration (MIC): 0.05
[4]
  Minimum Inhibitor Concentration (MIC): 0.78
[5]
  Minimum Inhibitor Concentration (MIC): 0.10
[6]
  Minimum Inhibitor Concentration (MIC): 0.05
[7]
  Minimum Inhibitor Concentration (MIC): 0.20
[8]
  Minimum Inhibitor Concentration (MIC): 0.05
[9]
  Minimum Inhibitor Concentration (MIC): 0.20
[10]
  Minimum Inhibitor Concentration (MIC): 0.39
[11]
  Minimum Inhibitor Concentration (MIC): 0.10

## Nc1nc(/C(=N/OCc2cc(O)c(O)c(Cl)c2)C(=O)NC2C(=O)N3C(C(=O)O)=C(CSc4cnns4)CSC23)cs1 (stereo not shown) [Example 7]
[1]
  Minimum Inhibitor Concentration (MIC): < 0.05
[2]
  Minimum Inhibitor Concentration (MIC): 0.78
[3]
  Minimum Inhibitor Concentration (MIC): < 0.05
[4]
  Minimum Inhibitor Concentration (MIC): 1.56
[5]
  Minimum Inhibitor Concentration (MIC): 0.01
[6]
  Minimum Inhibitor Concentration (MIC): < 0.05
[7]
  Minimum Inhibitor Concentration (MIC): 0.78
[8]
  Minimum Inhibitor Concentration (MIC): < 0.05
[9]
  Minimum Inhibitor Concentration (MIC): 6.25
[10]
  Minimum Inhibitor Concentration (MIC): 1.56
[11]
  Minimum Inhibitor Concentration (MIC): < 0.05

## Sodium 7-[2-(2-aminothiazol-4-yl)-2(Z)-(3,4-dihydroxybenzyloxyimino)acetamido]-3-(5-methyl-2-tetrazol-2-yl)thiomethyl-3-cephem-4-carboxylate [Example 6]
[1]
  Minimum Inhibitor Concentration (MIC): 0.20
[2]
  Minimum Inhibitor Concentration (MIC): 0.78
[3]
  Minimum Inhibitor Concentration (MIC): 0.10
[4]
  Minimum Inhibitor Concentration (MIC): 0.39
[5]
  Minimum Inhibitor Concentration (MIC): 0.10
[6]
  Minimum Inhibitor Concentration (MIC): 0.05
[7]
  Minimum Inhibitor Concentration (MIC): 1.56
[8]
  Minimum Inhibitor Concentration (MIC): 0.10
[9]
  Minimum Inhibitor Concentration (MIC): 1.56
[10]
  Minimum Inhibitor Concentration (MIC): 1.56
[11]
  Minimum Inhibitor Concentration (MIC): 0.20

## C[n+]1ccc(SCC2=C(C(=O)[O-])N3C(=O)C(NC(=O)/C(=N\OCc4cc(Cl)c(O)c(O)c4Cl)c4csc(N)n4)C3SC2)cc1 (stereo not shown) [Example 3, 7-[2-(2-aminothiazol-4-yl)-2(Z)-(2,5-dichloro-3,4-di hydroxybenzyloxyimino)acetamido]-3-(N-methylpyridin-4-yl)thiomethyl-3-cephem-4-carboxylic acid]
[1]
  Minimum Inhibitor Concentration (MIC): 0.05
[2]
  Minimum Inhibitor Concentration (MIC): 0.39
[3]
  Minimum Inhibitor Concentration (MIC): 0.025
[4]
  Minimum Inhibitor Concentration (MIC): 0.78
[5]
  Minimum Inhibitor Concentration (MIC): 0.39
[6]
  Minimum Inhibitor Concentration (MIC): 0.05
[7]
  Minimum Inhibitor Concentration (MIC): 0.39
[8]
  Minimum Inhibitor Concentration (MIC): 0.05
[9]
  Minimum Inhibitor Concentration (MIC): 0.20
[10]
  Minimum Inhibitor Concentration (MIC): 0.39
[11]
  Minimum Inhibitor Concentration (MIC): 0.39

## Nc1nc(/C(=N/OCc2cc(F)c(O)c(O)c2F)C(=O)NC2C(=O)N3C(C(=O)[O-])=C(CSc4cnns4)CS[C@H]23)cs1.[Na+] (stereo partly shown) [Example 8, Sodium 7-[2-(2-aminothiazol-4-yl)-2(Z)-(2,5-difluoro-3,4-dihydroxybenzyloxyimino)acetamido]-3-(1,2,3-thiadiazol-5-yl)thiomethyl-3-cephem-4-carboxylate]
[1]
  Minimum Inhibitor Concentration (MIC): < 0.05
[2]
  Minimum Inhibitor Concentration (MIC): 0.39
[3]
  Minimum Inhibitor Concentration (MIC): < 0.05
[4]
  Minimum Inhibitor Concentration (MIC): 1.56
[5]
  Minimum Inhibitor Concentration (MIC): 0.10
[6]
  Minimum Inhibitor Concentration (MIC): < 0.05
[7]
  Minimum Inhibitor Concentration (MIC): 0.20
[8]
  Minimum Inhibitor Concentration (MIC): < 0.05
[9]
  Minimum Inhibitor Concentration (MIC): 3.13
[10]
  Minimum Inhibitor Concentration (MIC): 0.78
[11]
  Minimum Inhibitor Concentration (MIC): < 0.05

## Nc1nc(/C(=N/OCc2cc(O)c(O)c(F)c2)C(=O)NC2C(=O)N3C(C(=O)O)=C(CSc4cnns4)CSC23)cs1 (stereo not shown) [Example 9, Sodium 7-[2-(2-aminothiazol-4-yl)-2(Z)-(5-fluoro-3,4-dihydroxybenzyloxyimino)acetamido]-3-(l,2,3-thiadiazol-5-yl)thiomethyl-3-cephem-4-carboxylate]
[1]
  Minimum Inhibitor Concentration (MIC): < 0.05
[2]
  Minimum Inhibitor Concentration (MIC): 0.78
[3]
  Minimum Inhibitor Concentration (MIC): < 0.05
[4]
  Minimum Inhibitor Concentration (MIC): 1.56
[5]
  Minimum Inhibitor Concentration (MIC): 0.10
[6]
  Minimum Inhibitor Concentration (MIC): < 0.05
[7]
  Minimum Inhibitor Concentration (MIC): 0.78
[8]
  Minimum Inhibitor Concentration (MIC): < 0.05
[9]
  Minimum Inhibitor Concentration (MIC): 6.25
[10]
  Minimum Inhibitor Concentration (MIC): 1.56
[11]
  Minimum Inhibitor Concentration (MIC): < 0.05
